Experiments:
Cynomologus monkeys = test system: Cynomologus monkeys
Procedure: Preparation of Tetrac for injection. Tetrac from Rhône-Poulenc and Henning Laboratory were compared. Tetrac powder was dissolved in sterile 0.1 N NaOH at 2 mg/ml. This solution was made before the beginning of each treatment period and stored at 4° C. in polypropylene tubes, protected from light. Each solution for injection was prepared daily after dilution in the vehicle (0.9% NaCl) containing 5% monkey serum (v/v), and was stored at room temperature and protected from light, according to the storage conditions of the test substance.
Animals. One male and one female purpose bred Cynomologus monkeys Macaca fascicularis were supplied by Centre de Recherches Primatologiques, Port Louis, Mauritius. […] The animals were individually housed in stainless steel cages and a metallic tray was placed under each cage in order to collect urine. The animals were fed daily with approximately 200 grams each of U.A.R. 107 C pelleted diet (batch Nos. 61106, 61207 and 70317, U.A.R., Villemoisson-sur-Orge, France), distributed about 2 hours after treatment with Tetrac. No contaminants were known to have been present in the diet, drinking water or bedding material at levels which may be expected to have interfered with or prejudiced the outcome of the study.
Weeks 1 to 3 and weeks 7 to 9: the animals received the test substance TETRAC provided either by Rhone-Poulenc or by Henning Laboratories over a three-week period.
Weeks 4 to 6 and weeks 10 to 12: a washout period of three weeks was observed.
Administration of Tetrac. Tetrac was administered via intramuscular injection into the thigh muscle once a day, at approximately the same time each day, several days a week over a three week period. The quantity of tetrac administered to each animal was adjusted according to the most recently recorded body weight. A constant dosage-volume of 0.5 ml/kg was used.
Morbidity and mortality. The animals were checked at least twice a day, for mortality and signs of morbidity.
Body weight. Body weight was recorded for each animal once before the beginning of the treatment period, on the first day of the treatment period, and at least once a week until the end of the study.
Food consumption. Food consumption was estimated for each animal by calculating the difference between the quantity given and that remaining the next morning. This was estimated daily during the week before treatment and throughout the study. Food consumption was expressed as a percentage of the quantity given. Whenever fasting was required, the food was removed at the end of the day and the estimation of consumption was made at that time, food being made available for approximately five hours on that day.

SERCA 2a mRNA = assay: Northern blot, SERCA 2a mRNA in heart; assay type: in vivo, rat; settings: FIG. 2b, compared to T4, p<0.001
Procedure: Seventy-nine male SIVZ rats were purchased from the breeder (Institut für Labortierkunde des Universität Zürich, Zürich, Switzerland). They were rendered hypothyroid by a single injection of [^131I]Na (100 μCi/rat) and before and throughout the experiment 0.02% 2-mercapto-1-methylimidazol (MMI) was added to drinking water. In order to have an euthyroid control group of similar weight and identical age, 10 rats received only MMI in the drinking water and 2 weeks before implanting the minipumps, MMI was withdrawn. Osmotic minipumps (secretion rate 0.25 μl/hour, duration 14 days) were implanted intraperitoneally (i.p.) 2 months after the injection of [^131I]Na. The minipumps were filled with T4 or Tetrac dissolved in 0.05 N NaOH, 2% BSA and 100,000 cpm [^125I]T4 or [^125I]Tetrac as control of their secretion rates. The infusion lasted 13 days. 0, 1.5, 4.5, 13.5 and 40.5 nmol Tetrac/day/100 g or 0.5, 1.5, 4.5 and 13.5 nmol T4/day/100 g bodyweight (BW) (n=4/dose) were infused. An euthyroid control group was included. The animals were weighed every 2 days. […]
The amount of labeled mRNA was quantified by scanning laser densitometry (Phosphorimager, Molecular Dynamics; Sunnyvale, USA). Variations in RNA loading and membrane transfer were corrected by densitometric quantification of a negative photograph of 28S and 18S ribosomal RNA bands from ethidium bromide stained RNA gels. […]

## O=C(O)Cc1cc(I)c(Oc2cc(I)c(O)c(I)c2)c(I)c1 [Tetrac, 3,3′,5,5′-tetraiodothyroacetic acid]
Cynomologus monkeys; 75 μg/kg/day intramuscular, treatment or washout periods
  Clinical signs: No clinical signs were observed
Cynomologus monkeys; Female, two treatment periods compared to washout periods
  Body weight gain (in words): slightly higher body weight gain
Cynomologus monkeys; Male
  Food consumption (in words): unaffected
SERCA 2a mRNA
  SERCA 2a mRNA levels, response to increasing doses (in words): weak response

Source: patent US6740680B1, “Pharmaceutical compositions to tetrac and methods of use thereof” (Becton Pharma, Inc., priority 1999, dated 2004)
